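Each compound was tested at five concentrations against cells in 96-well plates for 48 hours. At the GI50, growth is halved.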 Activity calls are given as the source filed them. No stated cut-off is given here; in the data, active = GI50 up to about 1.1 µM and inactive = higher.
What was measured:
Test in all cases: NCI anticancer screen, dose series, 48 h
HT-29 = system: HT-29
SK-OV-3 = system: SK-OV-3
T47D = system: T47D
MCF7 = system: MCF7
LOX IMVI = system: LOX IMVI
COLO 205 = system: COLO 205
CCRF-CEM = system: CCRF-CEM
CAKI-1 = system: CAKI-1
OVCAR-8 = system: OVCAR-8
IGROV-1 = system: IGROV-1
A498 = system: A498
ACHN = system: ACHN
SN12C = system: SN12C
LXFL 529 = system: LXFL 529
SW-620 = system: SW-620
TK-10 = system: TK-10
UACC-62 = system: UACC-62
HOP-62 = system: HOP-62
SK-MEL-28 = system: SK-MEL-28
SF-268 = system: SF-268

**Q.** How did the GI50 (HT-29) turn out when `Cc1c(N)nc(C(CC(N)=O)NCC(N)C(N)=O)nc1C(=O)NC(C(=O)NC(C)C(O)C(C)C(=O)NC(C(=O)NCCc1nc(-c2nc(C(=O)NCCCNC(C)c3ccccc3)cs2)cs1)C(C)O)C(OC1OC(CO)C(O)C(O)C1OC1OC(CO)C(O)C(OC(N)=O)C1O)c1c[nH]cn1` (stereo not drawn) was run?
**A.** Its GI50 is 21.1 µM (inactive).

**Q.** What about the GI50 (SK-OV-3) of the same compound?
**A.** The GI50 was 10.2 µM (inactive).

**Q.** What about the GI50 (T47D) of the same compound?
**A.** Its GI50 is 5.26 µM (inactive).

**Q.** What about the GI50 (MCF7) of the same compound?
**A.** The GI50 was 4.4 µM (inactive).

**Q.** What about the GI50 (LOX IMVI) of the same compound?
**A.** Its GI50 is 0.108 µM (active).

**Q.** And the GI50 (COLO 205)?
**A.** The GI50 was 11.3 µM (inactive).

**Q.** What about the GI50 (CCRF-CEM) of the same compound?
**A.** Its GI50 is 4.33 µM (inactive).

**Q.** What about the GI50 (CAKI-1) of the same compound?
**A.** Its GI50 is 0.0258 µM (active).

**Q.** What about the GI50 (OVCAR-8) of the same compound?
**A.** The GI50 was 5.11 µM (inactive).

**Q.** What about the GI50 (IGROV-1) of the same compound?
**A.** The GI50 was 9.51 µM (inactive).

**Q.** And the GI50 (A498)?
**A.** Its GI50 is 1.69 µM (inactive).

**Q.** What about the GI50 (ACHN) of the same compound?
**A.** Its GI50 is 0.0208 µM (active).

**Q.** And the GI50 (SN12C)?
**A.** Its GI50 is 2.07 µM (inactive).

**Q.** What about the GI50 (LXFL 529) of the same compound?
**A.** The GI50 was 23.9 µM (inactive).

**Q.** And the GI50 (SW-620)?
**A.** The GI50 was 17.7 µM (inactive).

**Q.** And the GI50 (TK-10)?
**A.** Its GI50 is 40.5 µM (inactive).

**Q.** What about the GI50 (UACC-62) of the same compound?
**A.** The GI50 was 0.706 µM (active).

**Q.** And the GI50 (HOP-62)?
**A.** The GI50 was 0.0998 µM (active).

**Q.** And the GI50 (SK-MEL-28)?
**A.** Its GI50 is 31.5 µM (inactive).

**Q.** What about the GI50 (SF-268) of the same compound?
**A.** The GI50 was 2.9 µM (inactive).

**Q.** For `CC1(C)OCN(c2ccc(Cl)cc2)Cn2c1nc1ccccc12`, which GI50 (HT-29) is on record?
**A.** The GI50 was > 100 µM (inactive).

**Q.** What about the GI50 (SK-OV-3) of the same compound?
**A.** Its GI50 is > 100 µM (inactive).

**Q.** And the GI50 (T47D)?
**A.** Its GI50 is > 100 µM (inactive).

**Q.** What about the GI50 (MCF7) of the same compound?
**A.** The GI50 was 58.9 µM (inactive).

**Q.** What about the GI50 (LOX IMVI) of the same compound?
**A.** Its GI50 is 3.21 µM (inactive).

**Q.** And the GI50 (COLO 205)?
**A.** The GI50 was 3.34 µM (inactive).

**Q.** What about the GI50 (CCRF-CEM) of the same compound?
**A.** Its GI50 is 11.4 µM (inactive).

**Q.** And the GI50 (OVCAR-8)?
**A.** The GI50 was 69 µM (inactive).

**Q.** And the GI50 (IGROV-1)?
**A.** The GI50 was 2.44 µM (inactive).

**Q.** And the GI50 (A498)?
**A.** Its GI50 is 48.9 µM (inactive).

**Q.** And the GI50 (ACHN)?
**A.** The GI50 was 31.8 µM (inactive).

**Q.** What about the GI50 (SN12C) of the same compound?
**A.** The GI50 was 70.5 µM (inactive).

**Q.** And the GI50 (LXFL 529)?
**A.** The GI50 was 1.31 µM (inactive).

**Q.** And the GI50 (TK-10)?
**A.** Its GI50 is > 100 µM (inactive).

**Q.** What about the GI50 (UACC-62) of the same compound?
**A.** The GI50 was 1.41 µM (inactive).

**Q.** And the GI50 (HOP-62)?
**A.** Its GI50 is > 27.3 µM (inactive).

**Q.** What about the GI50 (SK-MEL-28) of the same compound?
**A.** The GI50 was > 19.9 µM (inactive).

**Q.** And the GI50 (SF-268)?
**A.** Its GI50 is 15.8 µM (inactive).

Source: ChEMBL document CHEMBL1201862, “PubChem BioAssay data set” (2004)
